From paper PMC12251151, “Understanding Anti-Obesity Potential of Four Porphyrin Compounds by Investigating Pancreatic Lipase Inhibition” (Molecules, 2025)
Like-named read-outs stand apart in the source and are kept apart here.

Assays:
pancreatic lipase (PL) [1] = target: T1, pancreatic lipase (PL) (Sus scrofa, UniProt P00591); test: In vitro stability (temperature and acid-base pre-treatment, then PL inhibition); type: physicochemical, porcine; details: 20 min treatment with buffers pH 2.0-10.0
T1 construct: lipase (porcine pancreas); purchased Shanghai Yuanye Co., Ltd., Shanghai, China; host or cells: porcine pancreas
T1 sequence (P00591 1-450): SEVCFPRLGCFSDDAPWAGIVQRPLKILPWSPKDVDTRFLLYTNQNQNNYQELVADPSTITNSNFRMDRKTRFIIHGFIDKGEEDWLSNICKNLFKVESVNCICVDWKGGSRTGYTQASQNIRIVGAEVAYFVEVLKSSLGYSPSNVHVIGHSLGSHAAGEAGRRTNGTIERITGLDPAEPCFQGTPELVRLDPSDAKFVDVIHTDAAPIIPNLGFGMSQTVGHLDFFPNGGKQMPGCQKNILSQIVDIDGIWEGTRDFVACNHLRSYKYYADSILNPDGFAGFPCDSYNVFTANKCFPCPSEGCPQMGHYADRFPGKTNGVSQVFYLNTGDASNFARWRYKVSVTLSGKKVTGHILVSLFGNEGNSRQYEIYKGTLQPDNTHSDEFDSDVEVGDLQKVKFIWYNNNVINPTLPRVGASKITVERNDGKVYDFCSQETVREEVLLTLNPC
Experimental: Temperature stability study. Sample pre-treatment: 1000 μL samples were bathed in water at different temperatures (30, 40, 50, 60, 70, 80, 90, 100 °C) for 20 min, and cooled rapidly.
Acid-base stability study. Sample pre-treatment: 1000 μL samples were treated with buffers of different pH (2.0, 3.0, 4.0, 5.0, 6.0, 7.0, 8.0, 9.0, and 10.0) for 20 min, and then the pH was adjusted back to 6.9–7.3.
PL inhibition experiments were the same as Section 3.2.1. A total of 200 μL pre-treated four porphyrin compounds, 500 μL of 4-nitrophenyl laurate (0.80 mg/mL), 400 μL of Tris-HCl buffer (pH 8.2, 0.1 mol/L), and 300 μL of pancreatic lipase (5 mg/mL) were reacted in an incubator at 37 °C for 2 h. The reaction solution was centrifuged at 12,000 rpm for 5 min, and 200 μL of the supernatant was added to a 96-well plate. The absorbance at 420 nm was measured. The temperature stability range was determined by comparing the inhibition rate of the samples treated at different temperatures. The range of acid-base stability was determined by comparing the changes in inhibition rate.

pancreatic lipase (PL) [2] = target: T1, pancreatic lipase (PL); test: Fluorescence quenching and binding interaction with PL (Stern-Volmer, double logarithmic, Van't Hoff); parameters: species or system porcine; details: for Fluorescence quenching mechanism on PL: Stern-Volmer analysis; for Fluorescence quenching mechanism on PL / ΔH^0 / ΔS^0: 298-310 K; for Kd: read-out: Ka (binding constant) (converted); for ΔH^0 / ΔS^0: Van't Hoff; for Main driving forces of binding to PL: from signs of ΔH^0 and ΔS^0
From the text: Judged by the Stern–Volmer equation, the formula is referred to (3):(3) F0/F=1+KSV[Q]=1+Kqτ0[Q],
The modified Stern–Volmer equation [34], formula reference (4):(4) F0/F=e^KSV[Q]=e^Kqτ0[Q],
The double logarithmic equation:(5) logF0−F/F=logKa+nlog[Q],
In the formula, F0 and F are the fluorescence intensities of the enzyme before and after the addition of four porphyrin compounds. KSV and Kq represent the fluorescence quenching constant and the quenching rate constant, respectively. τ0 (10^−8 s) is the average lifetime of the fluorescent molecule in the absence of the fluorescence quencher. [Q] denotes the concentration of the porphyrin compound. Ka is the binding constant. n is the number of binding sites.
The relevant thermodynamic parameters were calculated by Equations (6) and (7), and the Van’t Hoff curves of four porphyrin compounds and enzymes were obtained:(6) lnKa=−ΔH^0/RT+ΔS^0/R, (7) ΔG^0=ΔH^0−TΔS^0=−RTlnKa,
The method of Li et al. was referred to and appropriate changes were made. A series of concentrations of porphyrin compounds were mixed with pancreatic lipase (5 mg/mL) at a volume ratio of 1:1 and incubated at 298, 304, and 310 K for 5 min. The excitation wavelength of the Hitachi fluorescence spectrometer F-7000 ([…], Japan) was set to 280 nm, the slit width was set to 5 nm, and the scanning range was set to 300–500 nm. In order to eliminate the influence of ‘internal filtering effect’ [42], the following formula is used for correction. Fcor=Fobse^(Aex+Aem)/2 , where Fcor and Fobs are the corrected fluorescence intensity and the experimentally measured fluorescence intensity, and Aex and Aem are the UV absorption values of the system at the excitation and emission wavelengths, respectively.

pancreatic lipase (PL) [3] = target: T1, pancreatic lipase (PL); test: FT-IR spectroscopy secondary structure analysis of PL-porphyrin complex; parameters: species or system porcine; details: PL:porphyrin molar ratio 1:2; for β-Antiparallel of PL in complex: PL alone 7.78 ± 0.02; for Random Coil of PL in complex: PL alone 16.30 ± 0.04; for β-Turn of PL in complex: PL alone 23.12 ± 0.03; for α-Helix of PL in complex: PL alone 25.48 ± 0.06; for β-Sheet of PL in complex: PL alone 27.31 ± 0.06
From the text: The effects of four porphyrin compounds on the secondary structure of PL were further studied by FT-IR spectroscopy. The amide I band (1700–1600 cm^−1, mainly C=O stretching) and the amide II band (1600–1500 cm^−1, mainly C-N stretching) are important spectral bands for studying the secondary structure of proteins. Because the regions of amide I band located at 1649–1660, 1615–1637, 1661–1680, 1638–1648, and 1681–1692 cm^−1 after curve fitting represent α-helix, β-sheet, β-turn, random coil and β-antiparallel, respectively, and the signal intensity is high, it is more widely evaluated than the amide II band.
The pancreatic lipase-porphyrin compound solution with a molar ratio of 1:2 was placed in a freeze-centrifugal concentrator Auto R1-plus (Beijing Jiaimu, Beijing, China). The dried solid samples were obtained and mixed with dried KBr, ground, and pressed into tablets, and then detected by Nicolet IS-50 (ThermoFisher, Waltham, MA, USA) instrument. The scanning range was 400–4000 cm^−1 and the resolution was 4 cm^−1. Peakfit V4.12 software was used to fit the amide I region (1600–1700 cm^−1) of pancreatic lipase.

SMILES	pH range in which PL inhibitory activity changed little (acid-base stability) (pancreatic lipase (PL) [1])	Fluorescence quenching mechanism on PL (pancreatic lipase (PL) [2])	Kq (quenching rate constant) (pancreatic lipase (PL) [2]; T 298 K)	Ksv (fluorescence quenching constant) (pancreatic lipase (PL) [2]; T 298 K)	n (number of binding sites) (pancreatic lipase (PL) [2]; T 298 K)	ΔG^0 (pancreatic lipase (PL) [2]; T 298 K) [kcal/mol]	Kq (quenching rate constant) (pancreatic lipase (PL) [2]; T 304 K)	Ksv (fluorescence quenching constant) (pancreatic lipase (PL) [2]; T 304 K)	n (number of binding sites) (pancreatic lipase (PL) [2]; T 304 K)	ΔG^0 (pancreatic lipase (PL) [2]; T 304 K) [kcal/mol]	Kq (quenching rate constant) (pancreatic lipase (PL) [2]; T 310 K)	Ksv (fluorescence quenching constant) (pancreatic lipase (PL) [2]; T 310 K)	n (number of binding sites) (pancreatic lipase (PL) [2]; T 310 K)	ΔG^0 (pancreatic lipase (PL) [2]; T 310 K) [kcal/mol]	ΔH^0 (pancreatic lipase (PL) [2]) [kcal/mol]	ΔS^0 (pancreatic lipase (PL) [2]) [J/mol/k]	Main driving forces of binding to PL (pancreatic lipase (PL) [2])	β-Antiparallel of PL in complex (pancreatic lipase (PL) [3]) [%]	Random Coil of PL in complex (pancreatic lipase (PL) [3]) [%]	β-Turn of PL in complex (pancreatic lipase (PL) [3]) [%]	also measured
O=C(O)c1ccc(-c2c3nc(c(-c4ccc(C(=O)O)cc4)c4ccc([nH]4)c(-c4ccc(C(=O)O)cc4)c4nc(c(-c5ccc(C(=O)O)cc5)c5ccc2[nH]5)C=C4)C=C3)cc1 [TCPP, meso-Tetra (4-carboxyphenyl) porphine]	2.0~10.0 pH	static quenching	4.60 ± 0.07 ×10^12 L/mol/s	4.60 ± 0.07 ×10^4 L/mol	1.30	-8.076 ± 0.0096	4.59 ± 0.06 ×10^12 L/mol/s	4.59 ± 0.06 ×10^4 L/mol	1.26	-7.945 ± 0.0311	4.50 ± 0.06 ×10^12 L/mol/s	4.50 ± 0.06 ×10^4 L/mol	1.16	-7.739 ± 0.019	-16.39 ± 0.017	−116.60 ± 0.11	hydrogen bonds and van der Waals forces	4.82 ± 0.01	24.70 ± 0.06	10.43 ± 0.03	Kd (pancreatic lipase (PL) [2]; T 298 K): 1190 nM; Kd (pancreatic lipase (PL) [2]; T 304 K): 1940 nM; Kd (pancreatic lipase (PL) [2]; T 310 K): 3500 nM; α-Helix of PL in complex (pancreatic lipase (PL) [3]): 22.26 ± 0.08%; β-Sheet of PL in complex (pancreatic lipase (PL) [3]): 37.79 ± 0.12%
Oc1ccc(-c2c3nc(c(-c4ccc(O)cc4)c4ccc([nH]4)c(-c4ccc(O)cc4)c4nc(c(-c5ccc(O)cc5)c5ccc2[nH]5)C=C4)C=C3)cc1 [THPP, 5,10,15,20-Tetrakis (4-hydroxyphenyl) porphyrin]	2.0~10.0 pH	mixed quenching dominated by static quenching and supplemented by dynamic quenching	1.36 ± 0.02 ×10^12 L/mol/s	1.36 ± 0.02 ×10^4 L/mol	1.52	-8.91 ± 0.0406	1.17 ± 0.03 ×10^12 L/mol/s	1.17 ± 0.03 ×10^4 L/mol	1.38	-8.363 ± 0.0263	1.11 ± 0.04 ×10^12 L/mol/s	1.11 ± 0.04 ×10^4 L/mol	1.33	-8.023 ± 0.022	-30.946 ± 0.0263	−309.86 ± 0.12	hydrogen bonds and van der Waals forces	8.32 ± 0.01	20.38 ± 0.02	19.70 ± 0.04	Kd (pancreatic lipase (PL) [2]; T 298 K): 292 nM; Kd (pancreatic lipase (PL) [2]; T 304 K): 968 nM; Kd (pancreatic lipase (PL) [2]; T 310 K): 2200 nM; α-Helix of PL in complex (pancreatic lipase (PL) [3]): 13.96 ± 0.04%; β-Sheet of PL in complex (pancreatic lipase (PL) [3]): 37.64 ± 0.05%
Nc1ccc(-c2c3nc(c(-c4ccc(N)cc4)c4ccc([nH]4)c(-c4ccc(N)cc4)c4nc(c(-c5ccc(N)cc5)c5ccc2[nH]5)C=C4)C=C3)cc1 [TAPP, 5,10,15,20-Tetrakis (4-aminophenyl) porphyrin]	2.0~9.0 pH	static quenching	9.70 ± 0.11 ×10^12 L/mol/s	9.70 ± 0.11 ×10^4 L/mol	1.05	-7.118 ± 0.012	8.80 ± 0.06 ×10^12 L/mol/s	8.80 ± 0.06 ×10^4 L/mol	1.01	-6.938 ± 0.017	8.17 ± 0.08 ×10^12 L/mol/s	8.17 ± 0.08 ×10^4 L/mol	0.96	-6.707 ± 0.014	-17.28 ± 0.012	−142.66 ± 0.06	hydrogen bonds and van der Waals forces	8.26 ± 0.02	24.25 ± 0.07	18.09 ± 0.04	Kd (pancreatic lipase (PL) [2]; T 298 K): 6020 nM; Kd (pancreatic lipase (PL) [2]; T 304 K): 10300 nM; Kd (pancreatic lipase (PL) [2]; T 310 K): 18500 nM; α-Helix of PL in complex (pancreatic lipase (PL) [3]): 12.81 ± 0.03%; β-Sheet of PL in complex (pancreatic lipase (PL) [3]): 36.59 ± 0.07%
O=C([O-])c1ccc(C2=C3C=CC(=N3)C(c3ccc(C(=O)[O-])cc3)=C3C=CC(=N3)C(=c3ccc(=C([O-])[O-])cc3)c3ccc([n-]3)C(c3ccc(C(=O)[O-])cc3)=C3C=CC2=N3)cc1.[67Cu+2].[H+].[H+].[H+].[H+] [Cu-TCPP, Cu (II) meso-Tetra (4-carboxyphenyl) porphine]	2.0~10.0 pH	static quenching	2.36 ± 0.01 ×10^12 L/mol/s	2.36 ± 0.01 ×10^4 L/mol	0.93	-5.631 ± 0.019	2.33 ± 0.03 ×10^12 L/mol/s	2.33 ± 0.03 ×10^4 L/mol	0.95	-5.851 ± 0.012	2.32 ± 0.03 ×10^12 L/mol/s	2.32 ± 0.03 ×10^4 L/mol	0.97	-6.064 ± 0.012	5.1 ± 0.0096	150.70 ± 0.07	hydrophobic forces	0.87 ± 0.01	23.40 ± 0.06	13.51 ± 0.03	Ka (binding constant) (pancreatic lipase (PL) [2]; T 298 K): 0.13 ± 0.01 ×10^5 L/mol; Ka (binding constant) (pancreatic lipase (PL) [2]; T 304 K): 0.16 ± 0.01 ×10^5 L/mol; Ka (binding constant) (pancreatic lipase (PL) [2]; T 310 K): 0.19 ± 0.01 ×10^5 L/mol; α-Helix of PL in complex (pancreatic lipase (PL) [3]): 15.78 ± 0.05%; β-Sheet of PL in complex (pancreatic lipase (PL) [3]): 46.44 ± 0.13%
